For one data set, the system named is tear production. Briefly: THP-induced dry eye in dogs: tear production. In kind it is in vivo, Beagles. As to conditions: oral, 2 mpk alone.
The test system of data set [1] is guinea pig ileum myenteric plexus-longitudinal muscle (MPLM) strips. The data set is described as follows: EFS-induced contractions in guinea pig ileum MPLM strips.
For a further data set, the target named is T1, CYP2B6 (Homo sapiens, UniProt P20813).
T1 sequence (P20813 1-491): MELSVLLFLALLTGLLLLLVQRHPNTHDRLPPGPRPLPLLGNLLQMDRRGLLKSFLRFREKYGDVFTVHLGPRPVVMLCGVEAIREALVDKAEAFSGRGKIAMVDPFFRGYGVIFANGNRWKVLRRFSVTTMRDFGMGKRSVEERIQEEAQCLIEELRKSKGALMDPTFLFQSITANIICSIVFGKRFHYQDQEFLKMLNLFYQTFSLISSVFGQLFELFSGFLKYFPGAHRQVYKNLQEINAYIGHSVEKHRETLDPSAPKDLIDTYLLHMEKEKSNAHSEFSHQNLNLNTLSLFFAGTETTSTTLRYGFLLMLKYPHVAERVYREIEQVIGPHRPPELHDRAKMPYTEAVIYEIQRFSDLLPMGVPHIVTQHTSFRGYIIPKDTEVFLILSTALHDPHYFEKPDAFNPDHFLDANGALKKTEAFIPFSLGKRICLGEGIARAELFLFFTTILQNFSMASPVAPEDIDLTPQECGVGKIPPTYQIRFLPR
The data set is described as follows: Incubation with recombinant CYP2B6.

In the next data set the target is CYP2C19 (Homo sapiens, UniProt P33261). Briefly: Incubation with recombinant CYP2C19.
The next data set has as its target T2, CYP2A6 (Homo sapiens, UniProt P11509).
T2 sequence (P11509 1-494): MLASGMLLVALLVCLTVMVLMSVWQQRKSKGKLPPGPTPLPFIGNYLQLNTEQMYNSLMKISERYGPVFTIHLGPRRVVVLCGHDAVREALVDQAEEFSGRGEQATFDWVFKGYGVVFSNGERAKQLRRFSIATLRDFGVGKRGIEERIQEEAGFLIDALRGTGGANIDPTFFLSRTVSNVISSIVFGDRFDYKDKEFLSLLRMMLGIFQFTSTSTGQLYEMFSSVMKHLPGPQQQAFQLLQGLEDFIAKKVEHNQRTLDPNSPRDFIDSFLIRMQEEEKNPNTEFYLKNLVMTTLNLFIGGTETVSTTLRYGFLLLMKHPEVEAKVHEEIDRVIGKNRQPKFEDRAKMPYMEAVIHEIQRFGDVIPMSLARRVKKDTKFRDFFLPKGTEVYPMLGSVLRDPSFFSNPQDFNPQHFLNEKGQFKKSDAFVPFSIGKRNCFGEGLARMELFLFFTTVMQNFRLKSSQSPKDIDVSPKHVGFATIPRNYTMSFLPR
Briefly: Incubation with recombinant CYP2A6.

For data set [2], the system named is haloperidol-induced catalepsy. Briefly: Haloperidol-induced catalepsy (bar test). In kind it is in vivo, Sprague Dawley rats. As to conditions: rats, haloperidol 1 mg/kg sc, Rac-THP 10, 20, 30 mg/kg, R-THP or S-THP 5, 10, 15 mg/kg ip. How it is done: Animals: Adult male Sprague Dawley rats (230-235 g) from Envigo were used in this study. Upon receipt, rats were group housed in ventilated cages and acclimated for one week prior to testing.
The front paws of a rat were placed then on a horizontal metal bar raised 6″ above a Plexiglas platform. Each rat underwent 3 trials of 60 seconds each. The test ended when the animal's front paws return to the platform or after 60 seconds. Rats were tested at 30 and 60 minutes after treatment.
Data were analyzed by one-way analysis of variance (ANOVA) followed by Tukey's post-hoc comparisons, where appropriate. Data are represented as mean and standard error to the mean (SEM).

The next data set addresses CYP2E1 (Homo sapiens, UniProt P05181). The data set is described as follows: Incubation with recombinant CYP2E1.
For the next data set, the target named is CYP2C9 (Homo sapiens, UniProt P11712). The data set is described as follows: Incubation with recombinant CYP2C9.
The next data set addresses CYP2D6 (Homo sapiens, UniProt P10635). The data set is described as follows: Incubation with recombinant CYP2D6.
Another data set has as its target T3, CYP1A2 (Homo sapiens, UniProt P05177).
T3 sequence (P05177 1-516): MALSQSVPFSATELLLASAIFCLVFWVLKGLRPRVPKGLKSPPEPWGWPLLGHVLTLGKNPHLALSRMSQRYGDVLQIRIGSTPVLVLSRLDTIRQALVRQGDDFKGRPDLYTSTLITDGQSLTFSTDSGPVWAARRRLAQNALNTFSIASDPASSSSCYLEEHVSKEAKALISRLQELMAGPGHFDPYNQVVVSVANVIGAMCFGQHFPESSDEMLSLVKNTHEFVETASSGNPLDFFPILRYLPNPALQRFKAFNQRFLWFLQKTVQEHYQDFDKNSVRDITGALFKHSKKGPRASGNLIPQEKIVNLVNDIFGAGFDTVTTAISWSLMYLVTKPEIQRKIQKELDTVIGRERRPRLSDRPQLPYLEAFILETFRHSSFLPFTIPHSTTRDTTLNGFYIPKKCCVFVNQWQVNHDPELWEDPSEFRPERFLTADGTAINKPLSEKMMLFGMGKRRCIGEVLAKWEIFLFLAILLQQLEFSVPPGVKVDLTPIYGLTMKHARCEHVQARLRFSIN
Briefly: Incubation with recombinant CYP1A2.

Another data set addresses CYP3A4 (Homo sapiens, UniProt P08684). The data set is described as follows: Incubation with recombinant CYP3A4.
In the next data set the target is CYP3A5 (Homo sapiens, UniProt P20815). Briefly: Incubation with recombinant CYP3A5.
The procedure of data set [3]:
The resulting metabolites were analyzed by liquid chromatography-mass spectrometry, and metabolite peaks were detected and measured.

Another data set deals with T4, CYP2C8 (Homo sapiens, UniProt P10632).
T4 sequence (P10632 1-490): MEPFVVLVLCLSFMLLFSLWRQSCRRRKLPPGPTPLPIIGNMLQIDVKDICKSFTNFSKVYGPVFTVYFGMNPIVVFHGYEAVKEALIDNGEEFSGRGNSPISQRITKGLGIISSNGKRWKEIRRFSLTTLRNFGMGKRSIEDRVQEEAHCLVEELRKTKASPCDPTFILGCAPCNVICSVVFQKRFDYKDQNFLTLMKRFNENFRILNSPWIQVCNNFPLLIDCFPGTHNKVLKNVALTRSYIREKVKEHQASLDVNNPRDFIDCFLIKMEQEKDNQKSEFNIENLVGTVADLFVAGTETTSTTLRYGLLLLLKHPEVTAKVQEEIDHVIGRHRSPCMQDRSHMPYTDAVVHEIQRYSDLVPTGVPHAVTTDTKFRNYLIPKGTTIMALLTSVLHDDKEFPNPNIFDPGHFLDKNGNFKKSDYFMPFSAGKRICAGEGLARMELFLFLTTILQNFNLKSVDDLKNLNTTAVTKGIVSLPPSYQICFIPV
The data set is described as follows: Incubation with recombinant CYP2C8.

The nature of data set [4]: Whole blood stability, human. The procedure:
(§1) Procedures for blood Stability. • A. 398 μL of blood from each species was added to an incubation plate, which was pre-warmed at 37C for 15 minutes. • B. After the pre-incubation, 2 μL of working solution (test compounds or control compounds) was spiked to 398 μL of blood to reach a final concentration of 1 μM for test compounds and 5 μM for control compounds. The final concentration of organic solvents is 0.5%. The assays were performed in duplicate. • C. The reaction samples were incubated at 37C. • D. Aliquots of 50 μL were taken from the reaction samples at 0, 15, 30, 60 and 120 minutes. The reaction was stopped by the addition of 50 μL ultrapure water and 400 μL cold acetonitrile. • E. All samples were vortexed for 10 minutes, followed by centrifugation at 3,220 g for 40 minutes to precipitate proteins. 100 μL of the supernatant was then transferred to a new plate. The supernatant was diluted with ultrapure water as needed for detection by LC-MS/MS. Sample Analysis
(§2) Samples were analyzed by LC-MS/MS to measure the concentration of the test compounds.
(§3) All calculations were carried out using Microsoft Excel and according to standard analysis methods that are known in the art.

Data set [5] is described as follows: Whole blood stability, dog. How it is done:
as §1, §2, §3

A short description of data set [6]: Whole blood stability, rat. The conditions noted are these: rat whole blood, 37C. The procedure:
as §1, §2, §3

[7] abbreviates: cumulative concentration response curve, no pre-treatment.

Consider five compounds from patent US12290513B2, “Therapeutic methods and compositions for treating movement disorders” (Vima Therapeutics, Inc., priority 2023, dated 2025).

CYP2C9, sequence (P11712 whole entry): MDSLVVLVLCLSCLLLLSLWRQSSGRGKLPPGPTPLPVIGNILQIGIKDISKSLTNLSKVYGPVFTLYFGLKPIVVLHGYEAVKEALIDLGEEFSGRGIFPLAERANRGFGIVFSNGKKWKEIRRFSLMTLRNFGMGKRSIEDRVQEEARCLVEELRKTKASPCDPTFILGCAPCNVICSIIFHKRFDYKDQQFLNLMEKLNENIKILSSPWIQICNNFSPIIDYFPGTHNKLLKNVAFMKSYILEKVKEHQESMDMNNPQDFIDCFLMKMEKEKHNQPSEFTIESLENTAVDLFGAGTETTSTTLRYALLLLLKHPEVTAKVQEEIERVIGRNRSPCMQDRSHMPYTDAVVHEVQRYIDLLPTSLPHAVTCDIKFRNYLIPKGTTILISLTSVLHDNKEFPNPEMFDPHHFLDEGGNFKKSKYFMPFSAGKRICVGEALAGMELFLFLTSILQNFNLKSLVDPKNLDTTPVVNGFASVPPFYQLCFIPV
CYP2E1, sequence (P05181 whole entry): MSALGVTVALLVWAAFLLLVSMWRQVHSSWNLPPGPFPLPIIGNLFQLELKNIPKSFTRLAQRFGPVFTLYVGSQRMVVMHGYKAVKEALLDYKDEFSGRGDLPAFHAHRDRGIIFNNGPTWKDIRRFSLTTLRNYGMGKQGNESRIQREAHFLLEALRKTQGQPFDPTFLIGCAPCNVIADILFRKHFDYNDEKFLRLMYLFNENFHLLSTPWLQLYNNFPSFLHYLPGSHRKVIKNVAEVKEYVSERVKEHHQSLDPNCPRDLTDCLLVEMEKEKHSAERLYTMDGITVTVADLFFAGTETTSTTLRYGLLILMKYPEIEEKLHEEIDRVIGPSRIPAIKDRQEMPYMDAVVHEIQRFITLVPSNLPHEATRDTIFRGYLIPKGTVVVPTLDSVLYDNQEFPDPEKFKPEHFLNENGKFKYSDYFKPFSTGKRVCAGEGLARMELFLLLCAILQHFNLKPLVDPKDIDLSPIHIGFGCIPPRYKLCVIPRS
CYP2C19, sequence (P33261 whole entry): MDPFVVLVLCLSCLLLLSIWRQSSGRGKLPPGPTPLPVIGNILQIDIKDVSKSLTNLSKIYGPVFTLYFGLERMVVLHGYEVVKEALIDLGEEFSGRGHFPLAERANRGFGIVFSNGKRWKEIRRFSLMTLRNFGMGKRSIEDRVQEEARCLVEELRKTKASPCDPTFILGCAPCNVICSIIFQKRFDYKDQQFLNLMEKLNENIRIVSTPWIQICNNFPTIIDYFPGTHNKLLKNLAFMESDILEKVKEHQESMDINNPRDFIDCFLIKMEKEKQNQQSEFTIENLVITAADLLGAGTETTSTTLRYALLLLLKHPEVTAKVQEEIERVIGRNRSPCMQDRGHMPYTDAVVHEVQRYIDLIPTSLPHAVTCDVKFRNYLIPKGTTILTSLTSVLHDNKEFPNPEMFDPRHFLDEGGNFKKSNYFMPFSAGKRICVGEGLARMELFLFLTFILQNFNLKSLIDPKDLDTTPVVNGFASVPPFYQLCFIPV
CYP3A5, sequence (P20815 whole entry): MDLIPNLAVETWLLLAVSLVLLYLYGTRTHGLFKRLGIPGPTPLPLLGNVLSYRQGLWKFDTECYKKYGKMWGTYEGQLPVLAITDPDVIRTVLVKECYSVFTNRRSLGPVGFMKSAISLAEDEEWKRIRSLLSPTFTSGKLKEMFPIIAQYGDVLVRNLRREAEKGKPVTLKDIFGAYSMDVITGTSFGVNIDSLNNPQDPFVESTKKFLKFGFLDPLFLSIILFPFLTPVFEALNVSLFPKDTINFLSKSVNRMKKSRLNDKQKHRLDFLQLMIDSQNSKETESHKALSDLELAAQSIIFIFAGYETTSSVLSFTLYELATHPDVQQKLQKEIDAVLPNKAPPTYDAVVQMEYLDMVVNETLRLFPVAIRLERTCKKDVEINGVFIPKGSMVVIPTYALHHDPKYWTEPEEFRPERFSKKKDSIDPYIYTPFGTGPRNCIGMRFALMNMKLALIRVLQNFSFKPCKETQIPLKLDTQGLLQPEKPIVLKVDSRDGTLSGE
CYP3A4, sequence (P08684 whole entry): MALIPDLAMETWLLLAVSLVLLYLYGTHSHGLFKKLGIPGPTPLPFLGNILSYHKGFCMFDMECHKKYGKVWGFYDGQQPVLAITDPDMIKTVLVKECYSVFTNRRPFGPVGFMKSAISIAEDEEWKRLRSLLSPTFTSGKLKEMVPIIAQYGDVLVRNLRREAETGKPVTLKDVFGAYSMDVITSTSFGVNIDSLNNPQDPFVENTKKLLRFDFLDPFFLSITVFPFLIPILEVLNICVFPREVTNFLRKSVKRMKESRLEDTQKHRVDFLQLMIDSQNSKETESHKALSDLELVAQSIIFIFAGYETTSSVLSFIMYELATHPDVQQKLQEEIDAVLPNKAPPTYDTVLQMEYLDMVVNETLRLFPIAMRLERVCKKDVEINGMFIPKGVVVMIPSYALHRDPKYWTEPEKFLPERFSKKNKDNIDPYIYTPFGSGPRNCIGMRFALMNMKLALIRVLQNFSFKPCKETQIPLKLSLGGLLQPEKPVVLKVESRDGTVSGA
CYP2D6, sequence (P10635 whole entry): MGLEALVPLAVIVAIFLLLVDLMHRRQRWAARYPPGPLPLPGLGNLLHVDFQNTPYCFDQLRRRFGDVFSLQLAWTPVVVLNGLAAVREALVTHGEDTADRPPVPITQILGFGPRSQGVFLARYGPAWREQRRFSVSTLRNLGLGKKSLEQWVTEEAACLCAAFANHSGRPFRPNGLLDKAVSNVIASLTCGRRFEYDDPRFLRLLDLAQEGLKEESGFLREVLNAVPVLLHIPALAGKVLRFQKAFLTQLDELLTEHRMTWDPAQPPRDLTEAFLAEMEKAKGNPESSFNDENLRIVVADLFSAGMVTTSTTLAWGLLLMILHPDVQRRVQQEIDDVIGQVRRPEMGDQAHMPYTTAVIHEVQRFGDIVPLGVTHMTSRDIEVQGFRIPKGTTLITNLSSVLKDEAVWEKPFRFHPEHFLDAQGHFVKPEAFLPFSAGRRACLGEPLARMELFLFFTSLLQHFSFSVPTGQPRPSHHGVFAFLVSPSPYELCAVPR

Regarding `CC(C[N+](C)(C)C)OC(N)=O` (racemic) [BTC, bethanechol], the figures for the “% Baseline tear production” value in the data set with tear production (1 hour post administration) and with tear production (4 hours post administration) were 107% and 117%, respectively. Besides, the change over baseline entry in [1] (BTC at 30 μM following pre-treatment with Rac-THP at 30 nM) is on record as “up to 50%”. Moreover, the “response of EFS-stimulated MPLM strips” value in data set [1] (setting [7]) is “concentration-dependent contraction”; in data set [1] (following pre-treatment with Rac-THP at 30 nM), “concentration-dependent relaxation of the isolated MPLM strips back to baseline”.
As for `OC(CCN1CCCCC1)(c1ccccc1)C1CCCCC1` (racemic) [Rac-THP, racemic trihexyphenidyl], the CLint at CYP2B6, at CYP2A6, at CYP2E1, on CYP2C9 and on CYP2C8 was 0.00 µL/min/pmol in each case. Moreover, the t1/2 entry on CYP2B6 (unit not given), at CYP2A6 (unit not given), on CYP2E1 (unit not given), on CYP2C9 (unit not given) and on CYP2C8 (unit not given) was “∞” throughout. In addition, at CYP2C19, the “Substrates of CYP2C19” value is “Rac, R and S”. In addition, the “time spent holding bar, haloperidol-induced catalepsy” value in [2] (30 minutes after injection) and in [2] (60 minutes after injection) was “significantly attenuated haloperidol-induced catalepsy” each time. Moreover, the “response of EFS-stimulated MPLM strips” value in data set [1] (setting [7]) was “concentration-dependent relaxation response”. The “Substrates of CYP2D6” value at CYP2D6 is “Rac, R and S”. The “Substrates of CYP1A2” value on CYP1A2 is “S and Rac”. In addition, the “Substrates of CYP3A4” value at CYP3A4 was “Rac, R and S”. Besides, the “Substrates of CYP3A5” value at CYP3A5 was “Rac, R and S”. For the same compound, in data set [3], the metabolites detected entry was “metabolite 18 when incubated with microsomes, but additional metabolites 13, 14, and 16 were also observed”.
As a reminder, the half-life is the time in which the quantity being followed falls by half. With `CC(C)[N+](C)(CCOC(=O)C1c2ccccc2Oc2ccccc21)C(C)C` [Propantheline], in [4] (human whole blood, 37C), the “Remaining Percentages (%) 0 min” value was determined as 100.00%, the “Remaining Percentages (%) 15 min” value stood at 71.54%, the “Remaining Percentages (%) 30 min” value worked out at 57.19% and the “Remaining Percentages (%) 60 min” value is listed as 25.74%. In [4] (human whole blood, 37C), the “Remaining Percentages (%) 120 min” value was determined as 6.31%. Also, the half-life at 5 μM in data set [4] (human, whole blood) was 31 min. For the same compound, in [5] (dog whole blood, 37C), the “Remaining Percentages (%) 0 min” value amounted to 100.00%, the “Remaining Percentages (%) 15 min” value is 91.17%, the “Remaining Percentages (%) 30 min” value turned out to be 90.30% and the “Remaining Percentages (%) 60 min” value amounted to 85.38%. The “Remaining Percentages (%) 120 min” value in data set [5] (dog whole blood, 37C) is given as 62.08%. In addition, the half-life at 5 μM in data set [5] (dog, whole blood) was 184 min.
Turning to `O=C(CCCN1CCC(O)(c2ccc(Cl)cc2)CC1)c1ccc(F)cc1` [haloperidol, Haloperidol], the “time spent holding bar, haloperidol-induced catalepsy” value in [2] (30 minutes after injection) and in data set [2] (60 minutes after injection) was “significantly increased the time the rats spend holding the bar” each time.
As to Mevinolin, in [6], the “Remaining Percentages (%) 0 min” value turned out to be 100.00%, the “Remaining Percentages (%) 15 min” value was 9.32%, the “Remaining Percentages (%) 30 min” value is 1.68% and the “Remaining Percentages (%) 60 min” value is reported as 2.21%. Moreover, in data set [6], the “Remaining Percentages (%) 120 min” value was 2.47% and the t1/2 was 4.38 min.
